Patent US6440903B1, “Substituted 2,4-diamino-1,3,5-triazines as herbicides” (Bayer Aktiengesellschaft, priority 1996, dated 2002)

Tests used:
weeds = assay: Pre-emergence test (summary in text); format: in vivo; conditions: result in words
Method: Solvent: 5 parts by weight of acetone
Emulsifier: 1 part by weight of alkylaryl polyglycol ether
To produce a suitable preparation of active compound, 1 part by weight of active compound is mixed with the stated amount of solvent, the stated amount of emulsifier is added and the concentrate is diluted with water to the desired concentration.
Seeds of the test plants are sown in normal soil. After about 24 hours, the soil is watered with the preparation of active compound. The amount of water per unit area is advantageously kept constant. The concentration of active compound in the preparation is immaterial, only the application rate of active compound per unit area matters.
After three weeks, the degree of damage to the plants is scored visually in % damage in comparison to the development of the untreated control.
0%=no effect (like untreated control)

Amaranthus [1] = assay: Pre-emergence test; format: in vivo; conditions: greenhouse, scored after three weeks
Method: (§1) Pre-emergence Test Solvent: 5 parts by weight of acetone Emulsifier: 1 part by weight of alkylaryl polyglycol ether To produce a suitable preparation of active compound, 1 part by weight of active compound is mixed with the stated amount of solvent, the stated amount of emulsifier is added and the concentrate is diluted with water to the desired concentration. Seeds of the test plants are sown in normal soil. After about 24 hours, the soil is watered with the preparation of active compound. The amount of water per unit area is advantageously kept constant. The concentration of active compound in the preparation is immaterial, only the application rate of active compound per unit area matters. After three weeks, the degree of damage to the plants is scored visually in % damage in comparison to the development of the untreated control. The figures denote: 0%=no effect (like untreated control) 100%=total destruction

Cotton = assay: Pre-emergence test; format: in vivo; conditions: greenhouse, scored after three weeks
Method: as §1

Digitaria = assay: Pre-emergence test; format: in vivo; conditions: greenhouse, scored after three weeks
Method: as §1

Echinochloa = assay: Pre-emergence test; format: in vivo; conditions: greenhouse, scored after three weeks
Method: as §1

Solanum = assay: Pre-emergence test; format: in vivo; conditions: greenhouse, scored after three weeks
Method: as §1

Veronica = assay: Pre-emergence test; format: in vivo; conditions: greenhouse, scored after three weeks
Method: as §1

Wheat = assay: Pre-emergence test; format: in vivo; conditions: greenhouse, scored after three weeks
Method: as §1

Polygonum = assay: Pre-emergence test; format: in vivo; conditions: greenhouse, scored after three weeks
Method: as §1

Setaria [2] = assay: Pre-emergence test; format: in vivo; conditions: greenhouse, 1000 g of ai./ha, scored after three weeks
Method: as §1

Abutilon [3] = assay: Post-emergence test; format: in vivo; conditions: greenhouse, 1000 g of ai./ha, scored after three weeks
Method: (§2) Post-emergence Test Solvent: 5 parts by weight of acetone Emulsifier: 1 part by weight of alkylaryl polyglycol ether To produce a suitable preparation of active compound, 1 part by weight of active compound is mixed with the stated amount of solvent, the stated amount of emulsifier is added and the concentrate is diluted with water to the desired concentration. Test plants which have a height of 5-15 cm are sprayed with the preparation of active compound such that the particular amounts of active compounds desired are applied per unit area. The concentration of the spray liquor is chosen so that the particular amounts of active compound desired are applied in 1000 l of water/ha. After three weeks, the degree of damage to the plants is scored visually in % damage in comparison to the untreated control. The Figures Denote: 0%=no effect (like untreated control) 100%=total destruction

Alopecurus = assay: Post-emergence test; format: in vivo; conditions: greenhouse, 1000 g of ai./ha, scored after three weeks
Method: as §2

Amaranthus [4] = assay: Post-emergence test; format: in vivo; conditions: greenhouse, 1000 g of ai./ha, scored after three weeks; for pest or weed control at 1000 g/ha: Amaranthus, 504 h, read-out: % damage, Amaranthus
Method: as §2

Avena fatua = assay: Post-emergence test; format: in vivo; conditions: greenhouse, 1000 g of ai./ha, scored after three weeks
Method: as §2

Setaria [5] = assay: Post-emergence test; format: in vivo; conditions: greenhouse, 1000 g of ai./ha, scored after three weeks; for pest or weed control at 1000 g/ha: Setaria, 504 h, read-out: % damage, Setaria
Method: as §2

Sinapis [6] = assay: Post-emergence test; format: in vivo; conditions: greenhouse, 1000 g of ai./ha, scored after three weeks
Method: as §2

Maize [7] = assay: Post-emergence test; format: in vivo; conditions: greenhouse, 1000 g of ai./ha, scored after three weeks
Method: as §2

Abutilon [8] = assay: Pre-emergence test; format: in vivo; conditions: greenhouse, 1000 g of ai./ha, scored after three weeks
Method: as §1

Maize [9] = assay: Pre-emergence test; format: in vivo; conditions: greenhouse, 1000 g of ai./ha, scored after three weeks
Method: as §1

Sinapis [10] = assay: Pre-emergence test; format: in vivo; conditions: greenhouse, 1000 g of ai./ha, scored after three weeks
Method: as §1

In the case of `CC(Nc1nc(N)nc(C(Cl)Cl)n1)c1ccc(Cl)cc1` (centres unmarked) [Example 149], the activity against weeds (weeds) is reported as “strong activity” and the melting point is reported as 152 °C.
For `CC(Nc1nc(N)nc(C(C)(Cl)Cl)n1)c1ccc(Cl)cc1` (centres unmarked) [drawing 99], the “% damage, Amaranthus” value (Amaranthus [1]; 1000 g of ai./ha) was 100%, the “% damage, Cotton” value (Cotton; 1000 g of ai./ha) was 0% and the “% damage, Digitaria” value (Digitaria; 1000 g of ai./ha) was 100%. The “% damage, Echinochloa” value (Echinochloa; 1000 g of ai./ha) was 95%, the “% damage, Solanum” value (Solanum; 1000 g of ai./ha) was 100% and the “% damage, Veronica” value (Veronica; 1000 g of ai./ha) was 100%. The “% damage, Wheat” value (Wheat; 1000 g of ai./ha) was 0%.
With `CC(=O)Nc1nc(NC(C)c2ccc(Cl)cc2)nc(C(C)(Cl)Cl)n1` (centres unmarked) [drawing 103] the “% damage, Amaranthus” value (Amaranthus [1]; 1000 g of ai./ha) was 100%, the “% damage, Digitaria” value (Digitaria; 1000 g of ai./ha) was 100% and the “% damage, Echinochloa” value (Echinochloa; 1000 g of ai./ha) was 100%. For the same compound, the “% damage, Polygonum” value (Polygonum; 1000 g of ai./ha) was 100%, the “% damage, Setaria” value (Setaria [2]) was 95% and the “% damage, Solanum” value (Solanum; 1000 g of ai./ha) was 100%. The “% damage, Veronica” value (Veronica; 1000 g of ai./ha) was 100% and the “% damage, Wheat” value (Wheat; 1000 g of ai./ha) was 0%.
In the case of `CC(Nc1nc(N)nc(Cl)n1)c1ccc(Cl)cc1` (centres unmarked) [drawing 107], the “% damage, Abutilon” value (Abutilon [3]) is reported as 100%, the “% damage, Alopecurus” value (Alopecurus) is reported as 100% and the “% damage, Amaranthus” value (Amaranthus [4]) is reported as 100%. For the same compound, the “% damage, Avena fatua” value (Avena fatua) was 100%, the “% damage, Setaria” value (Setaria [5]) was 100% and the “% damage, Sinapis” value (Sinapis [6]) was 100%.
In the case of `CC(Nc1nc(N)nc(Cl)n1)c1ccc(Cl)cc1` (centres unmarked) [drawing 106], the “% damage, Alopecurus” value (Alopecurus) is reported as 80%, the pest or weed control at 1000 g/ha (Amaranthus [4]) is reported as 100% and the “% damage, Maize” value (Maize [7]) is reported as 20%. The pest or weed control at 1000 g/ha (Setaria [5]) was 90%.
In the case of `CC(=O)Nc1nc(NC(C)c2ccc(Cl)cc2)nc(C(F)C(F)(F)F)n1` (centres unmarked) [drawing 97], the “% damage, Amaranthus” value (Amaranthus [1]; 500 g of ai./ha) is reported as 100%, the “% damage, Cotton” value (Cotton; 500 g of ai./ha) is reported as 0% and the “% damage, Digitaria” value (Digitaria; 500 g of ai./ha) is reported as 80%. The “% damage, Echinochloa” value (Echinochloa; 500 g of ai./ha) was 95%, the “% damage, Polygonum” value (Polygonum; 500 g of ai./ha) was 100% and the “% damage, Veronica” value (Veronica; 500 g of ai./ha) was 100%. For the same compound, the “% damage, Wheat” value (Wheat; 500 g of ai./ha) was 0%.
For `CC(Nc1nc(N)nc(C(C)(C)F)n1)c1ccc(Cl)cc1` (centres unmarked) [drawing 110], the “% damage, Abutilon” value (Abutilon [3]) was 100%, the “% damage, Alopecurus” value (Alopecurus) was 90% and the pest or weed control at 1000 g/ha (Amaranthus [4]) was 100%. For the same compound, the “% damage, Avena fatua” value (Avena fatua) was 95%, the pest or weed control at 1000 g/ha (Setaria [5]) was 100% and the “% damage, Sinapis” value (Sinapis [6]) was 100%.
With `CC(=O)Nc1nc(NC(C)c2ccc(Cl)cc2)nc(C(F)C(F)(F)F)n1` (centres unmarked) [drawing 102] the “% damage, Amaranthus” value (Amaranthus [1]; 1000 g of ai./ha) was 100%, the “% damage, Digitaria” value (Digitaria; 1000 g of ai./ha) was 100% and the “% damage, Echinochloa” value (Echinochloa; 1000 g of ai./ha) was 100%. The “% damage, Polygonum” value (Polygonum; 1000 g of ai./ha) was 100%, the “% damage, Setaria” value (Setaria [2]) was 100% and the “% damage, Solanum” value (Solanum; 1000 g of ai./ha) was 100%. For the same compound, the “% damage, Veronica” value (Veronica; 1000 g of ai./ha) was 100% and the “% damage, Wheat” value (Wheat; 1000 g of ai./ha) was 0%.
For `COCc1nc(NC(C)=O)nc(NC(C)c2ccc(SC)cc2)n1` (centres unmarked) [drawing 143], the pest or weed control at 1000 g/ha (Amaranthus [4]) was 100%, the “% damage, Maize” value (Maize [7]) was 0% and the pest or weed control at 1000 g/ha (Setaria [5]) was 100%. For the same compound, the “% damage, Sinapis” value (Sinapis [6]) was 100%.
For `CC(Nc1nc(N)nc(C(C)(C)F)n1)c1ccc(Cl)cc1` (centres unmarked) [drawing 95], the “% damage, Abutilon” value (Abutilon [8]) was 80%, the “% damage, Amaranthus” value (Amaranthus [1]; 1000 g of ai./ha) was 90% and the “% damage, Maize” value (Maize [9]) was 0%. For the same compound, the “% damage, Sinapis” value (Sinapis [10]) was 100%.
In the case of `CC(Nc1nc(N)nc(C(Cl)Cl)n1)c1ccc(Cl)cc1` (centres unmarked) [drawing 98], the “% damage, Cotton” value (Cotton; 500 g of ai./ha) is reported as 0%, the “% damage, Digitaria” value (Digitaria; 500 g of ai./ha) is reported as 95% and the “% damage, Echinochloa” value (Echinochloa; 500 g of ai./ha) is reported as 100%. For the same compound, the “% damage, Polygonum” value (Polygonum; 500 g of ai./ha) was 100%, the “% damage, Solanum” value (Solanum; 500 g of ai./ha) was 100% and the “% damage, Veronica” value (Veronica; 500 g of ai./ha) was 100%. The “% damage, Wheat” value (Wheat; 500 g of ai./ha) was 0%.
In the case of `CC(Nc1nc(N)nc(C(F)C(F)(F)F)n1)c1ccc(Cl)cc1` (centres unmarked) [drawing 101], the “% damage, Amaranthus” value (Amaranthus [1]; 1000 g of ai./ha) is reported as 100%, the “% damage, Digitaria” value (Digitaria; 1000 g of ai./ha) is reported as 100% and the “% damage, Echinochloa” value (Echinochloa; 1000 g of ai./ha) is reported as 100%. For the same compound, the “% damage, Polygonum” value (Polygonum; 1000 g of ai./ha) was 100%, the “% damage, Setaria” value (Setaria [2]) was 100% and the “% damage, Solanum” value (Solanum; 1000 g of ai./ha) was 100%. The “% damage, Veronica” value (Veronica; 1000 g of ai./ha) was 100% and the “% damage, Wheat” value (Wheat; 1000 g of ai./ha) was 0%.
